# Counter-ions that a name gives are not always drawn.
# Assays:
# CD-1 mice = assay: clonic convulsions in CD-1 mice after intraperitoneal dosing (range finding and main study)
# Protocol: Two studies were performed to investigate the relative proconvulsant properties of the two bupropion salts. In the first instance a range finding study was performed to establish the appropriate dose range for the main study. In each study the mice were divided into two dose groups and injected intraperitoneally with either bupropion HCl or bupropion HBr.
# A clonic convulsion was defined as a stiffening of the animal followed by jerking movements. The convulsions were classified as mild, moderate and severe according to the following descriptions.
# Mild: Head and tail slightly extended and little jerking
# Moderate: Head and tail fully extended with some jerking
# Severe: Head and tail fully extended with strong jerking
# Post-treatment findings recorded included continuous observation for 120 minutes for evidence of clonic convulsions, and intermittent (fixed) observations for 24 hours for other signs, including tonic convulsions, movement, activity, paralysis, gait and evidence of recovery.
# mice = assay: Proconvulsant properties of bupropion salts: clonic convulsions in mice; details: for Mean Number of Convulsions/Mouse / Total Number of convulsions: N=13
# Protocol: Number of convulsions and the intensity of the convulsions were recorded.
# Mild: Head and tail slightly extended and little jerking; Moderate: Head and tail fully extended with some jerking; Severe: Head and tail fully extended with strong jerking. […] Step 2: To further investigate the patterns of convulsion occurrence using loglinear Poisson regression models. The number of convulsions was analyzed using the loglinear Poisson regression models with formulation, dose, and severity as predictors.
# [1] = forced degradation of bupropion HBr and HCl in the presence of excipients at 55° C., 55° C./100% RH, 100° C., 105° C. (incl. TGA at 100° C.); format: physicochemical; details: in the presence of excipients, 55° C., 55° C./100% RH, 100° C., 105° C.
# Protocol: Further forced degradation studies were carried out at 55° C., at 55° C. and 100% relative humidity, at 100° C., and at 105° C. on both the HCl and HBr Bupropion salts in the presence of excipients. […] FIG. 53 is a graph showing the loss of each salt over time in a TGA experiment at 100° C.
# [2] = Solubility and other physical properties, Bupropion HBr vs Bupropion HCl; details: HCl from Erregierre, HBr from Chemi; hydrobromide
# [3] = Closed vial / closed glass bottle stability (40° C./75% RH) of bupropion salt APIs; format: physicochemical
# [4] = Dynamic Vapour Sorption (DVS) analysis
# [5] = system: chemically-induced seizures (induced by pentylenetetrazole) in mice; details: cited from earlier work
# [6] = 100 mg/kg i.p., pooled data N = 13/dose group, hydrobromide
# [7] = 150 mg/kg i.p., pooled data N = 13/dose group, hydrobromide
# [8] = 150 mg/kg, Moderate, hydrobromide
# [9] = 150 mg/kg, Severe, hydrobromide
# [10] = 10-Days, closed glass bottle 40 C./75% RH, HBr Lot# STN07491, HCl Lot# STN06973, hydrobromide
# [11] = 10 Days, closed glass bottle 40 C./75% RH, HBr Lot# STN07492, HCl Lot# STN06978, hydrobromide
# [12] = 14-Days, closed glass bottle 40° C./75% RH, HBr Lot# STN07492, HCl L# STN06973, hydrobromide
# [13] = 24 Days, closed glass bottle 40° C./75% RH, HBr Lot# STN07492, HCl L# STN06973, hydrobromide
# [14] = Initial, closed glass bottle 40 C./75% RH, HBr Lot# STN07491, HCl Lot# STN06973, hydrobromide
# [15] = Initial, closed glass bottle 40 C./75% RH, HBr Lot# STN07492, HCl Lot# STN06978, hydrobromide
# [16] = Initial, closed glass bottle 40° C./75% RH, HBr Lot# STN07492, HCl L# STN06973, hydrobromide
smiles,measurement,setting,value
"CC(NC(C)(C)C)C(=O)c1cccc(Cl)c1 (stereo not shown) [Bupropion HBr, bupropion hydrobromide]",Mean Intensity of Convulsions/Mouse % of Total: Mild,CD-1 mice; [6],90.0 % of Total
same,Mean Intensity of Convulsions/Mouse % of Total: Moderate,CD-1 mice; [6],10.0 % of Total
same,Mean Intensity of Convulsions/Mouse % of Total: Severe,CD-1 mice; [6],0.0 % of Total
same,Mean Number of Convulsions/Mouse,CD-1 mice; [6],0.8
same,numbers of mice that had convulsions in the dose group,CD-1 mice; [6],3/13
same,Mean Number of Convulsions/Mouse,"CD-1 mice; 100 mg/kg i.p., range-finding study, N = 3/dose group, hydrobromide",0
same,numbers of mice that had convulsions in the dose group,"CD-1 mice; 100 mg/kg i.p., second (main) study, N = 10/dose group",3/10
same,Mean Number of Convulsions/Mouse,"CD-1 mice; 100 mg/kg i.p., second (main) study, N = 10/dose group, hydrobromide",1.0
same,Mean Intensity of Convulsions/Mouse % of Total: Mild,CD-1 mice; [7],21.3 % of Total
same,Mean Intensity of Convulsions/Mouse % of Total: Moderate,CD-1 mice; [7],25.7 % of Total
same,Mean Intensity of Convulsions/Mouse % of Total: Severe,CD-1 mice; [7],53.0 % of Total
same,Mean Number of Convulsions/Mouse,CD-1 mice; [7],46.6
same,Mean Number of Convulsions/Mouse,"CD-1 mice; 150 mg/kg i.p., range-finding study, N = 3/dose group, hydrobromide",11.0
same,Mean Number of Convulsions/Mouse,"CD-1 mice; 150 mg/kg i.p., second (main) study, N = 10/dose group, hydrobromide",57.3
same,numbers of mice that had convulsions in the dose group,"CD-1 mice; […] i.p., pooled data N = 13/dose group, hydrobromide",11/13
same,numbers of mice that had convulsions in the dose group,"CD-1 mice; […] i.p., second (main) study, N = 10/dose group, hydrobromide",8/10
same,recovery from other treatment-related signs,CD-1 mice; range finding study,tendency to recover more quickly
same,threshold for tonic convulsions,"CD-1 mice; range finding study, i.p., hydrobromide",125 mg/kg
same,solubility,"physchem; organic solvent or mixture, EtOH",92 mg/mL
same,solubility,"physchem; organic solvent or mixture, IPA",12 mg/mL
same,solubility,physchem; water,143 mg/mL
same,"Mean Number of Convulsions/Mouse, cumulative","mice; 100 mg/kg, All, hydrobromide",0.77
same,Mean Number of Convulsions/Mouse,"mice; 100 mg/kg, Mild, hydrobromide",0.69
same,Total Number of convulsions,"mice; 100 mg/kg, Mild, hydrobromide",9
same,Mean Number of Convulsions/Mouse,"mice; 100 mg/kg, Moderate",0.08
same,"Mean Number of Convulsions/Mouse, cumulative","mice; 100 mg/kg, Severe + Moderate, hydrobromide",0.08
same,Mean Number of Convulsions/Mouse,"mice; 100 mg/kg, Severe, 120 min observation, hydrobromide",0.0
same,Total Number of convulsions,"mice; 100 mg/kg, Severe, hydrobromide",0
same,"Mean Number of Convulsions/Mouse, cumulative","mice; 150 mg/kg, All, hydrobromide",46.61
same,Mean Number of Convulsions/Mouse,"mice; 150 mg/kg, Mild, hydrobromide",9.92
same,Total Number of convulsions,"mice; 150 mg/kg, Mild, hydrobromide",129
same,Mean Number of Convulsions/Mouse,mice; [8],12.00
same,Total Number of convulsions,mice; [8],156
same,"Mean Number of Convulsions/Mouse, cumulative","mice; 150 mg/kg, Severe + Moderate, hydrobromide",36.69
same,Mean Number of Convulsions/Mouse,mice; [9],24.69
same,Total Number of convulsions,mice; [9],321
same,stability / degradation compared to bupropion HCl,[1],significant improvements in stability compared to bupropion HCl
same,PS (Malvern) 10%,[2],10% 72 μm
same,PS (Malvern) 50%,[2],50% 245 μm
same,PS (Malvern) 90%,[2],90% 657 μm
same,moisture content KF,[2],0.00%
same,pH (aq. 0.5%),[2],5.92
same,% Assay,[3]; [10],98.2%
same,% Impurities 3-CBZ,[3]; [10],0.070%
same,% Impurities 20U78/dilu,[3]; [10],0.051%
same,% Impurities 827U76,[3]; [10],0.039%
same,% Impurities 852U77,[3]; [10],0.125%
same,% Impurities Total (%),[3]; [10],0.42%
same,% Impurities Total unknown,[3]; [10],0.129%
same,% Assay,[3]; [11],99.2%
same,% Impurities 3-CBZ,[3]; [11],0.031%
same,% Impurities 20U78/dilu,[3]; [11],0.044%
same,% Impurities 852U77,[3]; [11],0.055%
same,% Impurities Total (%),[3]; [11],0.24%
same,% Impurities Total unknown,[3]; [11],0.15%
same,% Impurities 827U76,"[3]; 14-Days, closed glass bottle 40° C./75% RH, HBr Lot# STN07492, HCl L# STN06973",0.012%
same,% Assay,[3]; [12],98.8%
same,% Impurities 3-CBZ,[3]; [12],0.015%
same,% Impurities 20U78/dilu,[3]; [12],0.048%
same,% Impurities 852U77,[3]; [12],0.058%
same,% Impurities Total (%),[3]; [12],0.23%
same,% Impurities Total unknown,[3]; [12],0.105%
same,% Assay,[3]; [13],99.5%
same,% Impurities 3-CBZ,[3]; [13],0.022%
same,% Impurities 20U78/dilu,[3]; [13],0.038%
same,% Impurities 827U76,[3]; [13],0.016%
same,% Impurities 852U77,[3]; [13],0.052%
same,% Impurities Total (%),[3]; [13],0.23%
same,% Impurities Total unknown,[3]; [13],0.104%
same,% Assay,[3]; [14],99.5%
same,% Impurities 3-CBZ,[3]; [14],0.011%
same,% Impurities 20U78/dilu,[3]; [14],0.041%
same,% Impurities Total (%),[3]; [14],0.17%
same,% Impurities Total unknown,[3]; [14],0.129%
same,% Assay,[3]; [15],99.6%
same,% Impurities 3-CBZ,[3]; [15],0.007%
same,% Impurities 20U78/dilu,[3]; [15],0.041%
same,% Impurities Total (%),[3]; [15],0.23%
same,% Impurities Total unknown,[3]; [15],0.194%
same,% Assay,[3]; [16],99.6%
same,% Impurities 3-CBZ,[3]; [16],0.007%
same,% Impurities 20U78/dilu,[3]; [16],0.044%
same,% Impurities 852U77,[3]; [16],0.009%
same,% Impurities Total (%),[3]; [16],0.16%
same,% Impurities Total unknown,[3]; [16],0.098%
same,"hygroscopicity (DVS, words)",[4]; 0% RH-90% RH,non-hygroscopic
same,maximum water uptake (DVS),[4]; at 90% RH,0.14 % weight
[Br-].[Na+] [sodium bromide],ED50 / therapeutic dose level against pentylenetetrazole-induced seizures,[5],910 mg/kg

# From US7645802B2 (Biovail Laboratories International SRL., priority 2005, dated 2010)
